Results: publication PMC3493588 (2012)

Test system: d(CCG)8C (KR-2) (DNA, single strand) CCGCCGCCGCCGCCGCCGCCGCCGC
Assay: tryptophan fluorescence quenching titration
Conditions: Na+ (0.01 M NaCl); 0.02 M Hepes, pH 7.5-7.7, 0.0001 M EDTA, 20 °C; half salt-reversal at 0.06 M Na+; weaker at higher NaCl

H-RWRWKL-NH2
binding: yes
